Four molecules from ChEMBL document CHEMBL1201862, “PubChem BioAssay data set” (2004) can be followed below.

Holding throughout (assay): DTP human tumour cell line panel, 48 h
Test [1] concerns BT-549.
Test [2] relates to EKVX.
The test system of test [3] is HCC 2998.
Test [4] relates to HOP-62.
Test [5] relates to HOP-92.
Test [6] relates to HT-29.
Test [7] concerns MDA-MB-231.
The subject of test [8] is MOLT-4.
For test [9], the system named is Malme-3M.
Test [10] deals with NCI-H226.
The subject of test [11] is NCI/ADR-RES.
In test [12] the test system is OVCAR-3.
In test [13] the test system is PC-3.
The test system of test [14] is RPMI-8226.
Test [15] concerns SK-MEL-2.
Test [16] has as its system SNB-19.
Test [17] concerns TK-10.
Test [18] concerns U-251.
The subject of test [19] is UACC-62.

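Interpolation was linear, between the two tested concentrations surrounding the appropriate level; five concentrations were tested over 48 hours in 96-well plates. Abbreviation: GI50, concentration required for 50% inhibition of growth.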 Active and inactive are the calls of the source. Rule as the data show it: active = GI50 up to about 1.1 µM and inactive = higher.

As to `CCOC(=O)c1oc2cc3c(c4c2c1-c1ccccc1N4C)C=CC(C)(C)O3`, the GI50 in test [1] was 23.6 µM (inactive); in test [2], 15.3 µM (inactive); in test [3], 65.3 µM (inactive); in [4], 6.84 µM (inactive); in [5] it was 3.72 µM (inactive); in test [6] it was 9.51 µM (inactive). The GI50 was 10.4 µM (inactive) in test [7]; 14 µM (inactive) in test [8]; 12 µM (inactive) in [9]; 16.8 µM (inactive) in test [10]; 6.3 µM (inactive) in test [11]; 9.59 µM (inactive) in test [12]. The GI50 was 12.3 µM (inactive) in test [13]; 12.8 µM (inactive) in [14]; 26.6 µM (inactive) in test [15]; 14.7 µM (inactive) in test [16]; 7.1 µM (inactive) in test [17]; 7.5 µM (inactive) in test [18]. Besides, the GI50 in test [19] is 11.9 µM (inactive).

On to `COC1=CC(=O)O/C1=C(\OC)C1OC1c1ccccc1` (stereo unspecified), for which the GI50 in test [1], in test [2], in [3], in [4], in test [5] and in test [6] was > 100 µM (inactive) each time. The GI50 in test [7] is 74.3 µM (inactive); in [8], 53.7 µM (inactive); in test [9], > 100 µM (inactive); in test [10], > 100 µM (inactive); in test [11], > 100 µM (inactive); in test [12], > 100 µM (inactive). In addition, the GI50 in [13], in [14], in test [15], in test [16], in [17] and in test [18] was > 100 µM (inactive) in each case. Further, in [19], the GI50 was > 100 µM (inactive).

With `[N-]=[N+]=NC1C(O)C(CO)OC1n1ccc(=O)[nH]c1=O` (stereo unspecified), the GI50 in test [1] is > 875 µM (inactive); in test [2] it was 344 µM (inactive); in [3], > 875 µM (inactive); in test [4], > 875 µM (inactive); in test [5] it was > 875 µM (inactive); in [6], > 875 µM (inactive). The GI50 in test [7], in [8], in test [9], in test [10], in test [11] and in test [12] was > 875 µM (inactive) each time. Further, the GI50 in test [13], in [14], in test [15], in test [16], in test [17] and in test [18] was > 875 µM (inactive) throughout. Further, in test [19], the GI50 is > 875 µM (inactive).

`COc1cc(C2SC(=N)Nc3c2c(C)nn3C(=O)c2ccccc2O)ccc1O` (stereo unspecified): the GI50 is > 2.63 µM (inactive) in [1]; > 2.63 µM (inactive) in test [2]; > 6.62 µM (inactive) in test [3]; > 2.61 µM (inactive) in [4]; > 10 µM (inactive) in test [5]; > 6.38 µM (inactive) in test [6]. In addition, the GI50 in [7] is > 3.98 µM (inactive); in test [8], > 2.28 µM (inactive); in test [9], 0.513 µM (active); in [10], > 2.25 µM (inactive); in test [11], > 2.38 µM (inactive); in [12], > 2.93 µM (inactive). For the same molecule, the GI50 in test [13] is > 4.03 µM (inactive); in [14] it was > 2.09 µM (inactive); in test [15], > 2.86 µM (inactive); in test [16] it was > 2.39 µM (inactive); in test [17] it was > 2.96 µM (inactive); in [18], 1.74 µM (inactive). Moreover, the GI50 in test [19] was 1.15 µM (inactive).

One may read the GI50 as the concentration that inhibits growth by half.
